Source: US11891386B2, “Indole compounds and their use” (ARIAGEN, INC., priority 2017, dated 2024)

How the values were obtained:
Assay type in all cases: in vitro ADME
[1] = tested on: human hepatocytes; test: Hepatocyte intrinsic clearance assay, human hepatocytes; settings: for CLint (μL/min/10^6 ells) / EH (%) hepatic extraction ratio: Human Hepatocytes; for CLint (μL/min/10^6 ells): 1 μM test compound; for EH (%) hepatic extraction ratio: well stirred liver model, fu=1
Description: (§1) The liver is an important organ in the body for drug metabolism. This Example describes hepatocyte intrinsic clearance assays using both human and mouse hepatocytes to evaluate the metabolic stability of the indole compounds disclosed herein. The parameters measured include t1/2 (half-life), CLint (intrinsic clearance), and EH (hepatic extraction ratio).
(§2) Testosterone (Lot FE111011-01) was obtained from Cerilliant (Round Rock, TX). 7-hydroxycoumarin (Lot 11631ED) was obtained from Sigma Aldrich (St. Louis, MO). Cryopreserved human hepatocytes pooled from ten donor males (X008001), cryopreserved male IRC/CD-1 mouse hepatocytes (M005052), INVITROGRO HI Medium (incubation), and INVITROGRO HT Medium (thawing) were obtained from Bioreclamation IVT (Baltimore, MD). All solvents were obtained from commercial sources and used without further purification.
(§3) Each test compound was prepared as a 1 mM stock solution in DMSO. A 2 μM solution of test compound and positive controls were prepared in INVITROGRO HI Medium (incubation). These solutions were pre-warmed in a sterile incubator set to maintain 37° C., 5% CO2, and 98% humidity. Cryopreserved hepatocytes were prepared at a concentration of 2×10^6 living cells/mL in incubation media and pre-warmed in the incubator. The compound solutions and hepatocyte mixtures were then combined at a ratio of 1:1 (v:v). The final volume of the reaction mixture was 750 μL, containing 1 μM test compound (10 μM for 7-hydroxycoumarin) and […]. The reaction mixture was placed in the incubator on a plate shaker. After 0, 15, 30, 60, 90, and 120 minutes of incubation, 100 μL of reaction mixtures were removed from the incubation plate and mixed with 150 μL of ice-cold acetonitrile in a designated well of a 96-well crash plate. The 96-well crash plate was placed on ice for 15 min, and samples were centrifuged (3,600 RPM, 10 min, 4° C.) to precipitate protein. The supernatants were diluted 1:1 (v:v) with water containing 0.15 μM verapamil and/or 1 μM tolbutamide (internal standards for positive and negative modes, respectively) in a 96-well shallow injection plate. This plate was sealed for LC-MS analysis. All measurements were done in duplicate.
(§4) The residual compound remaining (% R) was determined from LC-MS peak areas by comparison to the zero time point. Metabolic half-life (t1/2) and intrinsic clearance (CLint) values were calculated from the slope of the plot of ln (% R) vs. time and the concentration of hepatocytes present in the incubation. Percent remaining at 60 minutes was calculated by plugging in the 60 minute value into the slope equation generated by the percent remaining time points.
(§5) In vivo hepatic clearance CLH was calculated using the well stirred liver model according to the following equation:
(§6) [formula] where QH is the total liver blood flow, fu is unbound fraction of the drug, and CL′int is defined as follows: CL′int=CLint×(10^6 cells/g of liver weight)×(g liver weight/kg of body weight). In the first approximation, used in this study, fu=1.
(§7) Hepatic extraction ratio EH was calculated using the following equation:
(§8) [formula] Corresponding physiological parameters used in calculations for all species are shown below in Table 5.

[2] = as above; settings: male, cryopreserved pooled human hepatocytes; Human Hepatocytes, 1 μM test compound
Description: as §1, §2, §3, §4, §5, §6, §7, §8

[3] = tested on: mouse hepatocytes; test: Hepatocyte intrinsic clearance assay, mouse hepatocytes; settings: for CLint (μL/min/10^6 ells) / EH (%) hepatic extraction ratio: Mouse Hepatocytes; for CLint (μL/min/10^6 ells): 1 μM test compound; for EH (%) hepatic extraction ratio: well stirred liver model, fu=1
Description: as §1, §2, §3, §4, §5, §6, §7, §8

[4] = as above; settings: male, IRC/CD-1, cryopreserved mouse hepatocytes; Mouse Hepatocytes, 1 μM test compound
Description: as §1, §2, §3, §4, §5, §6, §7, §8

Row | Compound | CLint (μL/min/10^6 ells) [1] [μL/min/10^6 ells] | EH (%) hepatic extraction ratio [1] [%] | half-life at 1 μM [2] [h] | CLint (μL/min/10^6 ells) [3] | EH (%) hepatic extraction ratio [3] [%] | half-life at 1 μM [4] [h] | clearance / metabolic profile, in words ([1]; human hepatocytes) | clearance / metabolic profile, in words ([3]; mouse hepatocytes) | EH lower as compared to ARI-002, in words ([1]; human hepatocytes) | times lower clearance as compared to ARI-002 ([1]; human hepatocytes) [times] | EH lower as compared to ARI-002, in words ([3]; mouse hepatocytes) | times lower clearance as compared to ARI-002 ([3]; mouse hepatocytes) [times]
1 | NCc1nc(-c2csc(C(=O)c3c[nH]c4c(F)cccc34)n2)no1 [ARI-146, (4-(5-(aminomethyl)-1,2,4-oxadiazol-3-yl)thiazol-2-yl)(7-fluoro-1H-indol-3-yl)methanone] | 1.9 | 19 | 6.23 | 6.9 μL/min/10^6 ells | 29 | 1.67 | – | – | – | – | – | –
2 | CCC(=O)c1csc(C(=O)c2c[nH]c3cccc(F)c23)n1 [ARI-142, 1-(2-(4-fluoro-1H-indole-3-carbonyl)thiazol-4-yl)propan-1-one] | 8.1 | 50 | 1.43 | 11 μL/min/10^6 ells | 38 | 1.1 | – | – | – | – | – | –
3 | Nc1nnc(-c2csc(C(=O)c3c[nH]c4ccc(F)cc34)n2)o1 [ARI-148, (4-(5-amino-1,3,4-oxadiazol-2-yl)thiazol-2-yl)(5-fluoro-1H-indol-3-yl)methanone] | 2.5 | 23 | 4.7 | 3.6 μL/min/10^6 ells | 18 | 3.17 | – | – | – | – | – | –
4 | CCC(=O)c1csc(C(=O)c2c[nH]c3c(F)cccc23)n1 [ARI-140, 1-(2-(7-fluoro-1H-indole-3-carbonyl)thiazol-4-yl)propan-1-one] | 3.5 | 30 | 3.33 | 1.5 μL/min/10^6 ells | 8.3 | 7.5 | – | – | – | – | – | –
5 | Nc1nnc(-c2csc(C(=O)c3c[nH]c4cc(Cl)c(Cl)cc34)n2)o1 [ARI-120, (4-(5-amino-1,3,4-oxadiazol-2-yl)thiazol-2-yl)(5,6-dichloro-1H-indol-3-yl)methanone] | 0.8 | 8.5 | 15.3 | 0.9 μL/min/10^6 ells | 4.8 | 13.5 | low clearance | low clearance | – | – | – | –
6 | Cc1nc(-c2csc(C(=O)c3c[nH]c4ccccc34)n2)no1 [ARI-030, (1H-indol-3-yl)(4-(5-methyl-1,2,4-oxadiazol-3-yl)thiazol-2-yl)methanone] | 1.8 | 18 | 6.31 | 40.5 μL/min/10^6 ells | 70 | 0.285 | – | – | – | – | – | –
7 | COC(=O)c1csc(C(=O)c2c[nH]c3ccc(F)cc23)n1 [ARI-066, methyl 2-(5-fluoro-1H-indole-3-carbonyl)thiazole-4-carboxylate] | 98.7 | 92 | 0.117 | 51.9 μL/min/10^6 ells | 75 | 0.223 | – | – | – | – | – | –
8 | CCC(=O)c1csc(C(=O)c2c[nH]c3cc(F)c(F)cc23)n1 [ARI-149, 1-(2-(5,6-difluoro-1H-indole-3-carbonyl)thiazol-4-yl)propan-1-one] | 5.3 | 39 | 2.2 | 2.9 μL/min/10^6 ells | 15 | 3.97 | – | – | – | – | – | –
9 | Cc1nnc(-c2csc(C(=O)c3c[nH]c4ccccc34)n2)o1 [ARI-060, (1H-indol-3-yl)(4-(5-methyl-1,3,4-oxadiazol-2-yl)thiazol-2-yl)methanone] | 2.5 | 24 | 4.55 | 5.0 μL/min/10^6 ells | 23 | 2.3 | – | – | – | – | – | –
10 | Cc1noc(-c2csc(C(=O)c3c[nH]c4ccccc34)n2)n1 [ARI-031, (1H-indol-3-yl)(4-(3-methyl-1,2,4-oxadiazol-5-yl)thiazol-2-yl)methanone] | 0.7 | 8 | 16.1 | 1.0 μL/min/10^6 ells | 6 | 11.7 | low clearance | low clearance | – | – | – | –
11 | NCc1nnc(-c2csc(C(=O)c3c[nH]c4c(F)cccc34)n2)o1 [ARI-145, (4-(5-(aminomethyl)-1,3,4-oxadiazol-2-yl)thiazol-2-yl)(7-fluoro-1H-indol-3-yl)methanone] | 4.1 | 33 | 2.83 | 5.1 μL/min/10^6 ells | 23 | 2.27 | – | – | – | – | – | –
12 | Nc1nnc(-c2csc(C(=O)c3c[nH]c4c(F)cccc34)n2)o1 [ARI-118, (4-(5-amino-1,3,4-oxadiazol-2-yl)thiazol-2-yl)(7-fluoro-1H-indol-3-yl)methanone] | 0.7 | 8.4 | 15.4 | 0.8 μL/min/10^6 ells | 4.6 | 14 | low clearance | low clearance | – | – | – | –
13 | CCC(=O)c1csc(C(=O)c2c[nH]c3ccc(F)cc23)n1 [ARI-087, 1-(2-(5-fluoro-1H-indole-3-carbonyl)thiazol-4-yl)propan-1-one] | 6.0 | 43 | 1.91 | 6.3 μL/min/10^6 ells | 27 | 1.84 | – | – | two times lower | 23 | three times lower | 153
14 | Nc1nnc(-c2csc(C(=O)c3c[nH]c4ccccc34)n2)s1 [ARI-090, (4-(5-amino-1,3,4-thiadiazol-2-yl)thiazol-2-yl)(1H-indol-3-yl)methanone] | 5.3 | 39 | 2.19 | 2.5 μL/min/10^6 ells | 13 | 4.7 | – | – | – | – | – | –
15 | CNC(=O)c1csc(C(=O)c2c[nH]c3ccc(Cl)cc23)n1 [ARI-049, 2-(5-chloro-1H-indole-3-carbonyl)-N-methylthiazole-4-carboxamide] | 3.0 | 27 | 3.88 | 7.3 μL/min/10^6 ells | 30 | 1.59 | lower clearance and EH value | lower clearance and EH value | – | – | – | –
16 | CNC(=O)c1csc(C(=O)c2c[nH]c3ccccc23)n1 [ARI-004] | 40.2 | 65 | 0.712 | 1,174.2 μL/min/10^6 ells | 93 | 0.0467 | – | – | – | – | – | –
17 | O=C(c1nc(-c2nnco2)cs1)c1c[nH]c2ccccc12 [ARI-056, (4-(1,3,4-oxadiazol-2-yl)thiazol-2-yl)(1H-indol-3-yl)methanone] | 17.7 | 68 | 0.653 | 25.8 μL/min/10^6 ells | 60 | 0.447 | – | – | – | – | – | –
